Reference: patent US10208017B2, “Heterocycles capable of modulating T-cell responses, and methods of using same” (Nogra Pharma Limited, priority 2012, dated 2019)
“Also recorded” adds a separate entry of the source.

Columns and labels:
phospho-Zap70 = assay: Western blot of TCR related signaling, phospho-Zap70; format: cell-based, Human; settings: 10 min pretreatment, 10 min PHA; compared to a stimulated untreated control
Method: (§1) Lymphocytes were seeded in a 6 well plate (1.0·10^7/well), pretreated for 10 minutes with S3.1, S3.4 or dexamethasone and stimulated for 10 minutes with PHA. The experiment was stopped by adding a large volume of ice cold PBS to the cells. The suspension was transferred to a tube, briefly spinned down in a centrifuge and the supernatant removed. The pellet was lysed by adding cold lysis buffer (0.1% NP40, 50 mM TrisHCl, 1 mM EDTA, 1 mM EGTA, 150 mM NaCl, 200 μM Na3VO4, 10 mM NaF and protease inhibitors) and incubating 20 minutes on ice.
(§2) To investigate the cell signaling events that are affected by treatment with S3.1 and S3.4, lysates were supplemented with sample buffer (188 mM Tris-Cl (pH 6.8), 3% SDS, 30% glycerol, 0.01% bromophenol blue, 15% β-mercaptoethanol), heated to 95° C. for 5 minutes, cooled on ice and sonicated. Samples were then run on 10% SDS-PAGE gel, blotted to PVDF membrane and incubated with antibodies for phospho-Zap70 (Cell Signaling Technology (Beverly, Mass.)) and phospho-LAT (Cell Signaling Technology (Beverly, Mass.)). To show equal loading of the samples the blot was incubated with an antibody directed against beta-actin (Santa Cruz Biotechnology (Heidelberg, Germany)).

phospho-LAT = assay: Western blot of TCR related signaling, phospho-LAT; format: cell-based, Human; settings: 10 min pretreatment, 10 min PHA; compared to a stimulated untreated control
Method: as §1, §2

[1] = tested on: Human peripheral blood lymphocytes (PBLs) stimulated with PHA; assay: Inhibition of T lymphocyte proliferation (tritiated thymidine); format: cell-based
[2] = tested on: interaction between lymphocyte-specific protein tyrosine kinase (LCK) and its chaperone Hsp90; assay: Immunoprecipitation of Lck and blotting for Hsp90; format: cell-based, Human; settings: Lck immunoprecipitation, PHA stimulated lymphocytes
Method: as §1
The kinase Lck acts as a gate keeper to T cell receptor (TCR) related signaling as it is one of the first and most up stream kinases to be activated upon stimulation of the TCR. As downstream signaling of the TCR is inhibited by S3.1 and S3.4 treatment interactions with Lck were investigated by immunoprecipitating Lck and blotting for Hsp90. For immunprecipitation experiments 1.0·10^7 cells were used per condition. Cells were pelleted and lysed as described previously. The supernatant was precleared by adding 10 μl Protein A/G UltraLink resin (Pierce Biotechnology, Rockford, USA) for 30 minutes at 4° C. Beads were spinned down and discarded. Samples were incubated with 2 μg primary antibody and 25 μl beads for 2 hours at 4° C. Beads were washed with PBS, sample buffer was added and heated to 95° C. for 5 minutes.

c1ccc(CN2CCCC(c3ccnc(SCCN4CCCC4)n3)C2)cc1 (stereo not shown) [S3.4, 4-(1-benzylpiperidin-3-yl)-2-(2-(pyrrolidin-1-yl)ethylthio)-pyrimidine]
phosphorylation level of kinase Zap70 (phospho-Zap70): lower phosphorylation levels
phosphorylation level of scaffolding protein LAT (phospho-LAT): lower phosphorylation levels
effect on lymphocyte proliferation [1]: antiproliferative effect; also recorded: shows effect on lymphocyte proliferation
interaction between LCK and its chaperone Hsp90 [2]: lost
